Experimental data published in patent publication US20200306244A1, “WNT INHIBITORS FOR USE IN THE TREATMENT OF FIBROSIS” (NOVARTIS AG, priority 2016, published 2020).

Key:
[1] = tested on: primary kidney fibroblasts; conditions: Madan et al. 2016; cited from earlier work
[2] = tested on: bleomycin-induced skin fibrosis; experiment: Bleomycin-induced mouse skin fibrosis model, 3 weeks bleomycin then 3 weeks treatment; assay type: in vivo, mouse (female C57/BI6); conditions: for dermal skin thickness: FIG. 1B
Method: In the bleomycin model (FIG. 1 (A-E) and FIG. 2 (A-B)), fibrosis was induced in 6-week-old female C57/BI6 mice (Charles River, Sulzfeld, Germany) by injection of 100 μL 0.5 mg/ml bleomycin into a defined skin area of 1 cm' between the shoulders at the back every other day for up to six weeks. Control mice were injected with 0.9% NaCl, the solvent of bleomycin. Another group of mice received bleomycin injections for 3 weeks followed by saline (NaCl) injections for the next 3 weeks to control for spontaneous regression of fibrosis. Animals were treated with or without compound of formula (I′) at multiple dose levels twice daily for indicated weeks using suspension formulation containing 0.5% methylcellulose and 0.5% tween 80. Each group of mice were killed and the skin sections analyzed.
(§1) The anti-fibrotic effects of compound of Formula (I′) on experimental skin fibrosis was evaluated by quantification of dermal or hypodermal thickening, respectively, analyses of myofibroblast counts and assessment of hydroxyproline content. Tissue samples were fixed in 10% phosphate-buffered formalin for 24 hours, then embedded in paraffin and cut into […] sections. The slides were stained with hematoxylin and eosin for better visualization of the tissue structure.
(§2) The hydroxyproline content was measured according to the method as described in hydroxyproline content (Woessner J. F. Arch. Biochem. Biophys. […], 93, 440-447).
(§3) The dermal thickness was analyzed with a microscope by measuring the maximal distance between the epidermal-dermal junction and the dermal-subcutaneous fat junction at 4 different skin sections in each mouse.
(§4) For quantification of myofibroblasts, skin sections were deparaffinized and incubated with 5% bovine serum albumin for 60 minutes. Cells positive for α-smooth muscle actin (α-SMA) were detected by incubation with monoclonal anti-α-SMA antibodies (clone 1A4; Sigma-Aldrich, Steinheim, Germany) for 2 hours at room temperature followed by incubation with 3% hydrogen peroxide for 10 minutes. […] antibodies labeled with horseradish peroxidase were used as secondary antibodies. The expression of α-SMA was visualized with 3,3′-diaminobenzidine tetrahydrochloride. Monoclonal mouse IgG antibodies were used as controls
Porcupine Inhibitor Compound of Formula (I′) in the Bleomycin-Induced Mouse Fibrosis Model To test compound of formula (I′) for anti-fibrotic effects, bleomycin was injected in 6-week-old female C57/BI6 mice for 3 weeks to induce fibrosis (FIG. 1A). The control group was injected with saline. The bleomycin treated animals were further dosed with or without compound of formula (I′) b.i.d. for another 3 weeks. […] Similar observations have been obtained when examining the hydroxyproline content and myofibroblast count of mouse skin samples as shown in FIG. 1C and FIG. 1D.

[3] = Plasma exposure after last oral dose in bleomycin model (C57/BI6); assay type: in vivo, mouse (female C57/BI6); conditions: FIG. 1E
Method: (§5) The plasma concentrations of compound of formula (I′) were determined by a liquid chromatography-tandem mass spectrometry (LC/MS/MS) assay. Briefly, mouse plasma samples were extracted with a methanol-acetonitrile mixture (3:1, v/v). Supernatant was injected onto HPLC system with a Waters Atlantis T3 analytical column (2.1×30 mm, 3.5 μm, Waters Corp., Milford, Mass., USA). The mobile phases consisted of 0.1% formic acid in water (solvent A) and 0.1% formic acid in acetonitrile (solvent B), and a gradient elution method (0-1.5 min, 10% B to 95% B; 1.5-2.0 min, 95% B; 2.01 min, 10% B) at flow rate of 800 μL/min was employed for chromatographic separation. Mass spectrometric analysis was performed on a SCIEX API-4000 triple quadruple mass spectrometer (Applied Biosystems, Foster City, Calif., USA) using atmospheric pressure chemical ionization (APCI) in the positive ion mode. Multiple reaction monitoring (MRM) of compound of formula (I′) and internal standard was used for quantitative measurements, and peak integration was performed using Analyst™ 1.4 software. The lower limit of detection for the assay was 1 ng/mL. Pharmacokinetic parameters were calculated by non-compartmental regression analysis using an in house fitting program.

[4] = tested on: bleomycin-induced skin fibrosis; experiment: Bleomycin mouse fibrosis model in Balb/C mice, skin thickness (FIG. 4); assay type: in vivo
Method: To test compound of formula (I′) and compound of formula (I″) in a mouse fibrosis model, bleomycin was injected in Balb/C mice, with or without orally dosed compound of formula (I′) (5 mg/kg b.i.d.) and compound of formula (I″) (1 mg/kg b.i.d.) for 3 weeks. Skin tissue samples were taken at the end of the study and embedded in paraffin and skin thickness was measured (FIG. 4). Furthermore, the bleomycin treated animals were treated with or without orally dosed compound of formula (I′) at a dose of 5 mg/kg b.i.d. and compound of formula (I″) at a dose of 1 mg/kg b.i.d. for three weeks.

[5] = tested on: Wnt pathway target gene Axin2 mRNA; experiment: Axin2 mRNA expression in skin tissue of bleomycin-treated Balb/C mice (qRT-PCR/TaqMan); assay type: in vivo, mouse (Balb/C); conditions: 5 mg/kg b.i.d. oral 3 weeks, tissue 7 hour after last dose, Gapdh internal control; FIG. 2B
Method: Total RNA was isolated from tissue samples and processed to perform quantitative RT-PCR analysis of […] mRNA expression, with Gapdh serving as an internal control according to the manufacturer's instructions, as previously described.
Data were analyzed with SDS 2.0 software (Applied Biosystems), statistical analysis was conducted using PRISM.
(§6) In a separate study to confirm the on-target activity of compound of formula (I′) in a mouse fibrosis model, bleomycin was injected in Balb/C mice, with or without orally dosed compound of formula (I′) at 5 mg/kg b.i.d. for 3 weeks. Blood samples at multiple time points after the last dose were collected. […] Tissue samples were collected 7 hour after the last dose, and the Wnt pathway target gene Axin2 mRNA expression level was measured with qRT-PCR, with the housekeeping gene, Gapdh, as an internal control.

[6] = PK analysis of blood samples after last dose in bleomycin-treated Balb/C mice; assay type: in vivo, mouse (Balb/C); conditions: 5 mg/kg b.i.d. oral for 3 weeks; FIG. 2A
Method: as §5, with “Mass spectrometric analysis was performed on a SCIEX API-4000 triple quadruple mass spectrometer (Applied Biosystems, Foster City, Calif., USA) using atmospheric pressure chemical ionization (APCI) in the positive ion mode.” left out, “The lower limit of detection for the assay was 1 ng/mL.” left out
as §6, with “weeks.” for “weeks. Blood samples at multiple time points after the last dose were collected.”

Tsk-1 mice fibrosis = experiment: Tight skin (Tsk-1) mouse genetic fibrosis model; assay type: in vivo, mouse (Tsk-1); conditions: for skin thickness: FIG. 3B; for myofibroblast count: FIG. 3D; for anti-fibrotic effects: Tsk-1 model
Method: In the Tsk-1 model (FIG. 3(A-F)), treatment with compound of formula (I′) was started at the age of 5 weeks and was continued for 5 weeks. Animals were treated with or without compound of formula (I′) at multiple dose levels twice daily using suspension formulation containing 0.5% methylcellulose and 0.5% tween 80.
as §1, §2, §3
The Hypodermal thickness in TSK-1 mice was determined by measuring the thickness of the subcutaneous connective tissue beneath the panniculus carnosus at 4 different sites of the upper back in each mouse. The evaluation was performed by 2 independent examiners.
as §4
To further test the anti-fibrotic effects of compound of formula (I′), we turned to a mouse genetic fibrosis model, the tight skin model (Tsk-1). Tsk-1 mice contain a spontaneous duplication mutation of fibrillin-1 gene, which leads to activation of TGFβ signaling, and the subsequent fibrosis (increased in dermal and hypodermal thickness).
Five week old wild type or Tsk-1 mice were treated with or without compound of formula (I′) b.i.d. for 5 weeks (FIG. 3A).

[7] = Plasma exposure after last oral dose in Tsk-1 model; assay type: in vivo, mouse (Tsk-1); conditions: FIG. 3E
Method: as §5, with “Mass spectrometric analysis was performed on a SCIEX API-4000 triple quadruple mass spectrometer (Applied Biosystems, Foster City, Calif., USA) using atmospheric pressure chemical ionization (APCI) in the positive ion mode.” left out, “The lower limit of detection for the assay was 1 ng/mL.” left out
Similar to that described for the bleomycin-induced mouse fibrosis model, plasma exposures of compound of formula (I′) in this tight skin model were also determined following the last oral dose, and PK data are shown in FIG. 3E.

skin fibrosis markers = conditions: clinical trial; Rice et al. 2015; cited from earlier work
[8] = all dose levels (2.5, 5, 10 mg/kg) b.i.d. for 5 weeks

Q: With `Cc1cc(-c2ccc(CC(=O)Nc3ccc(-c4cccnc4)cc3)cc2)ccn1` [C59] as the molecule, how does the “TGFβ-induced Axing induction” value [1] read?
A: could abrogate TGFβ-induced Axing induction

Q: For `CC(=O)N1CCN(c2ccc(NC(=O)Cc3cnc(-c4ccnc(F)c4)c(C)c3)nc2)CC1` [compound of formula (I′), N-(5-(4-acetylpiperazin-1-yl)pyridin-2-yl)-2-(2′-fluoro-3-methyl-[2,4′-bipyridin]-5-yl)acetamide], which dermal skin thickness ([2]; 5 mg/kg and 10 mg/kg groups, oral b.i.d. 3 weeks) is on record?
A: reduced the skin thickness to levels lower than the baseline

Q: What about the “fibrosis reversal (hydroxyproline content and myofibroblast count)” value ([2]; 5 and 10 mg/kg groups) of the same molecule?
A: strong evidence of fibrosis reversal

Q: And the dermal skin thickness ([2]; all dose levels (2.5, 5, 10 mg/kg) oral b.i.d. for 3 weeks after 3 weeks bleomycin)?
A: reduced dermal skin thickness at all dose levels in a dose dependent manner

Q: What about the hydroxyproline content ([2]; all dose levels (2.5, 5, 10 mg/kg) oral b.i.d., FIG. 1C) of the same molecule?
A: to levels lower than the baseline and closer to the control group

Q: And the myofibroblast count ([2]; all dose levels (2.5, 5, 10 mg/kg) oral b.i.d., FIG. 1D)?
A: to levels lower than the baseline and closer to the control group

Q: And the “absorption and oral exposure” value ([3]; after last oral dose, 2.5-10 mg/kg b.i.d.)?
A: highly absorbed and showed high oral exposures

Q: What about the “plasma exposures, dose proportionality” value ([3]; from […] to 10 mg/kg) of the same molecule?
A: increased approximately dose proportionally

Q: What about the dermal skin thickness ([4]; 5 mg/kg b.i.d. oral for three weeks) of the same molecule?
A: induce the reduction of dermal skin thickness

Q: What about the “reduction of Axin2 mRNA expression” value [5] of the same molecule?
A: 54%

Q: What about the oral bioavailability [6] of the same molecule?
A: good oral bioavailability

Q: What about the skin thickness (Tsk-1 mice fibrosis; 5 and 10 mg/kg groups) of the same molecule?
A: reduced to levels lower than the baseline and closer to the control group

Q: What about the myofibroblast count (Tsk-1 mice fibrosis; 5 and 10 mg/kg groups) of the same molecule?
A: reduction of the myofibroblast count towards control level

Q: And the hypodermal skin thickness (Tsk-1 mice fibrosis; H&E staining of mouse skin samples, FIG. 3F)?
A: significantly reduced hypodermal skin thickness

Q: And the anti-fibrotic effects (Tsk-1 mice fibrosis)?
A: robust anti-fibrotic effects

Q: What about the skin thickness (Tsk-1 mice fibrosis; [8]) of the same molecule?
A: significant anti-fibrotic effects at all dose levels

Q: What about the hydroxyproline content (Tsk-1 mice fibrosis; all dose levels (2.5, 5, 10 mg/kg) b.i.d. for 5 weeks, FIG. 3C) of the same molecule?
A: significant anti-fibrotic effects at all dose levels

Q: What about the myofibroblast count (Tsk-1 mice fibrosis; [8]) of the same molecule?
A: significant anti-fibrotic effects at all dose levels

Q: What about the “plasma exposures compared with bleomycin model” value ([7]; after last oral dose) of the same molecule?
A: comparable between the two separate experiments

Q: And the “plasma exposures, dose proportionality” value ([7]; from […] to 10 mg/kg)?
A: increased approximately dose proportionally

Q: Which dermal skin thickness ([4]; 1 mg/kg b.i.d. oral for three weeks) does the source give for `Cc1cc(-c2ncc(CC(=O)Nc3ccc(-c4cnccn4)cn3)cc2C)ccn1` [compound of formula (I″), 2-(2′,3-dimethyl-[2,4′-bipyridin]-5-yl)-N-(5-(pyrazin-2-yl)pyridin-2-yl)acetamide] here?
A: induce the reduction of dermal skin thickness

Q: What about the “in vivo activity compared to compound of Formula (I′)” value ([4]; 1 mg/kg b.i.d. vs 5 mg/kg b.i.d.) of the same molecule?
A: showed even better in vivo activities

Q: And the anti-fibrotic effects (Tsk-1 mice fibrosis)?
A: robust anti-fibrotic effects

Q: Which skin fibrosis markers (skin fibrosis markers) does the source give for Fresolimumab: anti-TGFβ antibody here?
A: Reduction of the skin fibrosis markers has been observed
